From paper PMC7934871 (JCI Insight, 2021)
No end group written: not given here.

Experiments:
cancer cells = assay: Confocal microscopy of peptide localisation; format: cell-based; conditions: 1 μM, 1 hour
Experimental: (§1) Figure 8 PS-Gp130 and PS-MYC blocking peptides efficiently internalize into tumor cells to exert their functions. (A) For 1 hour 1 μM of PS-conjugated MYC (PS-MYC) and Gp130 (PS-Gp130) were incubated with cancer cells. PS-scramble MYC (PS-SC-MYC) was used as a control for PS-MYC. The peptide uptake was visualized by confocal microscopy and quantified by flow cytometry. Data are representative of 3 independent experiments (n = 3). (B) Upper panel: The binding of PS-Gp130 and STAT3 was examined by immunoprecipitation and Western blotting. PO-Gp130 was used as a control. For 4 hours prior to harvest, 1 μM of peptide was incubated with cells. Lower panel: PS-Gp130 inhibits IL-6–induced phosphorylation of STAT3 and p44/42 but not EGF-mediated signaling. The cells were preincubated with PS-Gp130 for 2 hours and then stimulated with 20 ng/mL of IL-6 or 30 ng/mL of EGF for 30 minutes before harvest and Western blotting. (C) Gene expression of STAT3 targets was examined by quantitative PCR after the treatment with 1 μM of PS-Gp130 with or without IL-6 stimulation as described above. Data shown are 3 independent experiments (n = 3); SD is shown. Unpaired Student’s t test; ***P < 0.005; **P < 0.01; *P < 0.05. (D) A total of 1 μM of PS-SC-MYC or PS-MYC was incubated with cells for 48 hours before the gene expression of MYC targets was examined by quantitative PCR. […]

MYC target genes = assay: Gene expression of MYC targets by quantitative PCR; format: cell-based; conditions: 1 μM, 48 hours, n = 3
Experimental: as §1, with “Lower panel: PS-Gp130 inhibits IL-6–induced phosphorylation of STAT3 and p44/42 but not EGF-mediated signaling. The cells were preincubated with PS-Gp130 for 2 hours and then stimulated with 20 ng/mL of IL-6 or 30 ng/mL of EGF for 30 minutes before harvest and Western blotting.” left out, “Data shown are 3 independent experiments (n = 3); SD is shown. Unpaired Student’s t test; ***P < 0.005; **P < 0.01; *P < 0.05.” left out
Total RNA was extracted from cultured or tumor tissues using RNeasy kit (QIAGEN), according to manufacturer’s instruction. After cDNA synthesis using iScript cDNA Synthesis kit (Bio-Rad), samples were analyzed using pairs of primers specific for CASP9, CASP3, CASP8, BIRC5, BCL2L1, MYC, TP53, VEGF, IL1B, SERPIN3, FGA, CDK4, CCND2, CDKN2A, CDKN2B, GADD45A, mCD274, mMmp9, and mBirc5, as indicated. […]

[1] = mouse, in vivo
Experimental: Supplemental Figure 10 (related to Figure 3). The systemic toxicity of PS-acet.-peptide.
The bodyweight (A), blood count (B) and organ morphology (H&E staining; spleen, kidney and liver) (C) of the mice (n=3) treated with HBSS (1), PS-oligo (2), naïve peptide (3), PO-peptide (4) or PS-peptide (5) every other day at 1 mg/kg (per treatment) for 3 weeks.
Individual value of each mouse is shown as a dot on the graph. The red lines on each graph in (B) indicate the normal ranges. Blood count was done by a veterinary hematology analyzer. The images shown in (C) are the represented H&E section from three mice (n=3). Enlarged view are shown below as indicated. Scale bar, 50 µm.
Aftabizadeh and Li et al., Figure S10
Supplemental Figure 12 (related to Figure 6).
(A) Amino acid sequences of phosphorothioated (*, PS) DNA oligonucleotide-modified Gp130 (PS-Gp130), MYC (PS-MYC) and scrambled MYC (PS-SC-MYC) peptides. PS-Gp130 peptide spans 9 amino acids of Gp130 protein (amino acids […]). PS-MYC peptide contains 9 amino acids of Max protein (amino acids 77-85).
(B and C) The bodyweight (B, n=5) and blood count (C, n=3) of the mice in each treatment group was measured at the end point. Individual value of each mouse is shown as a dot on the graph. The red lines on each graph indicate the normal ranges.
Aftabizadeh and Li et al., Figure S12

For “PS-MYC: PS-conjugated peptide corresponding to leucine zipper segment of MAX (amino acids 77–85) (KNHTHQQDI; also: phosphorothioate oligonucleotide conjugate; UniProt P61244 77-85, looked up, fragment)”, the “intracellular localisation / retention of peptide” value (cancer cells) was “retained in the nucleus”, the “expression of MYC-mediated cell cycle and survival genes” value (MYC target genes) was “markedly downregulated” and the “expression of MYC-suppressed target genes” value (MYC target genes) was “upregulating”. The “blood count (anemia)” value [1] was “minor anemia”.
